US20240018125A1, “CYCLIC ISOTHIOUREA DERIVATIVES AS CXCR4 MODULATORS” (ERMIUM THERAPEUTICS, priority 2020, published 2024)
Where a name gives a salt, the structure may show the parent alone.

These molecules were tested on peripheral blood mononuclear cells (PBMCs) from healthy donors (assay: IFN production by R848-activated PBMCs, quantified with twINNE luciferase reporter cell line). Settings: Homo sapiens, PBMC; read-out: IC50 of anti-inflammatory activity (IFN production by activated PBMCs).
Type: cell-based, human
Experimental: The blood from healthy donors was obtained from “Etablissement Français du Sang” (convention #19/EFS/029), Paris, France.
In vitro experiments were performed using human peripheral blood mononuclear cells (PBMCs) isolated by density centrifugation from peripheral blood leukocyte separation medium, lymphoprep (Stemcell Technologies).
PBMCs were cultured in RPMI 1640 (Sigma-Aldrich, MO, USA) containing 10% heat-inactivated fetal bovine serum (Sigma-Aldrich, MO, USA) at 37° C./5% CO2.
The PBMCs used herein were prepared as described in part A “immune cells preparation”, above. PBMCs were seeded at 4.10^6/mL. Cells were pre-treated with different concentration of examples according to the invention. Cells were then stimulated with the TLR7/8 agonist resiquimod—R848 (Sigma-Aldrich, MO, USA) at 5 μg/mL.
To quantify the secretion of functional IFN, a biological assay based on a stable cell line where luciferase reporter gene is controlled by five Interferon-Stimulated Response Elements (twINNE cell line) was used. First, supernatants of R848-stimulated PBMCs (see part B above) were harvested after 24 h of stimulation and frozen at −20° C. for storage. Then, supernatants were dispensed in culture wells of a 96-well plate containing 35.103 twINNE cells per well in Dulbecco's Modified Eagle's Medium supplemented with 10% Foetal Bovine Serum, 100 U/mL Penicillin and 100 μg/mL Streptomycin (1% Pen-Strep) and 1 mM glutamine (Sigma-Aldrich, MO, USA) at 37° C./5% CO2. After 24 h of culture, luciferase activity was determined by adding 60 μL of Bright-Glo reagents (Promega, Wisconsin, USA) to culture wells and measuring bioluminescence with EnSpire Multimode Plate Reader (PerkinElmer, Massachusetts, USA). When stated, for IC50 calculation, dose-response curves fitted using the nonlin fit (variable slope) analysis in GraphPad Prism software (GraphPad Software, Califronia, USA).
IFN production was quantified (as specified in Materials and Methods, part C “quantification of interferon secretion”) using twINNE reporter cell line.
In the case of `C1=C(CSC2=NCc3ccccc3N2)N2Cc3cccnc3N=C2S1` [Example 28, 3-(((3,4-dihydroquinazolin-2-yl)thio)methyl)-5H-pyrido[2,3-d]thiazolo[3,2-a]pyrimidine trihydrochloride], the IC50 is reported as ≤ 10 µM. In the case of `CN1CCCC1CCCSC1=NCc2cc(Cl)ccc2N1` (stereo not shown) [Example 174, 6-chloro-2-((3-(1-methylpyrrolidin-2-yl)propyl)thio)-1,4-dihydroquinazoline dihydrochloride], the IC50 is reported as ≤ 10 µM. For `CC1(c2ccccc2)CN=C(SCC2=CSC3=Nc4ccc(Cl)cc4CN23)N1` (stereo not shown) [Example 72, 7-chloro-3-(((5-methyl-5-phenyl-4,5-dihydro-1H-imidazol-2-yl)thio)methyl)-5H-thiazolo[2,3-b]quinazoline dihydrochloride], the IC50 was ≤ 10 µM. `c1ccc2c(c1)CCN=C(S[C@H]1CCNC1)N2` [Example 199, (S)-2-(pyrrolidin-3-ylthio)-4,5-dihydro-3H-benzo[d][1,3]diazepine dihydrochloride] gave an IC50 of 10 to 32 µM. For `CC1CCCN1CCSC1=NCc2ccccc2N1` (stereo not shown) [Example 130, 2-((2-(2-methylpyrrolidin-1-yl)ethyl)thio)-1,4-dihydroquinazoline dihydrochloride], the IC50 was ≤ 10 µM. With `OC1(CSC2=NCc3ccccc3N2)CSC2=N[C@H](c3ccccc3)[C@@H](c3ccccc3)N21` (relative stereo) [Example 17, trans-3-(((3,4-dihydroquinazolin-2-yl)thio)methyl)-5,6-diphenyl-2,3,5,6-tetrahydroimidazo[2,1-b]thiazol-3-ol dihydrochloride] the IC50 was > 32 µM. For `Clc1cccc2c1CN1C(CSC3=NCc4ccccc4N3)=CSC1=N2` [Example 81, 6-chloro-3-(((1,4-dihydroquinazolin-2-yl)thio)methyl)-5H-thiazolo[2,3-b]quinazoline dihydrochloride], the IC50 was ≤ 10 µM. `Brc1ccc2c(c1)NC(SCC1=CSC3=NC(Cc4ccccc4)CN13)=NC2` (stereo not shown) [Example 119, 6-benzyl-3-(((7-bromo-1,4-dihydroquinazolin-2-yl)thio)methyl)-5,6-dihydroimidazo[2,1-b]thiazole dihydrochloride] was tested, and the IC50 was ≤ 10 µM. With `Clc1ccc2c(c1)CN=C(SCC1=CSC3=NC(Cc4ccccc4)CN13)N2` (stereo not shown) [Example 114, 6-benzyl-3-(((6-chloro-1,4-dihydroquinazolin-2-yl)thio)methyl)-5,6-dihydroimidazo[2,1-b]thiazole dihydrochloride] the IC50 was ≤ 10 µM. With `O=C(CCCSC1=NCc2ccccc2N1)N1CCCC1` [Example 147, 4-((1,4-dihydroquinazolin-2-yl)thio)-1-(pyrrolidin-1-yl)butan-1-one hydrochloride] the IC50 was > 32 µM. `Clc1ccc2c(c1)NC(SCCCCN1CCCC1)=NC2` [Example 150, 7-chloro-2-((4-(pyrrolidin-1-yl)butyl)thio)-1,4-dihydroquinazoline dihydrochloride] was tested, and the IC50 was ≤ 10 µM. `CC(CCCSC1=NCc2cc(Cl)ccc2N1)N1CCCC1` (stereo not shown) [Example 162, 6-chloro-2-((4-(pyrrolidin-1-yl)pentyl)thio)-1,4-dihydroquinazoline dihydrochloride] was tested, and the IC50 was ≤ 10 µM. In the case of `O=C(O)C1CCN(CCSC2=NCc3ccccc3N2)C1` (stereo not shown) [Example 144, 1-(2-((1,4-dihydroquinazolin-2-yl)thio)ethyl)pyrrolidine-3-carboxylic acid dihydrochloride], the IC50 is reported as > 32 µM. For `CC1(c2ccccc2)CN=C(SCCN2CCCC2)N1` (stereo not shown) [Example 131, 5-methyl-5-phenyl-2-((2-(pyrrolidin-1-yl)ethyl)thio)-4,5-dihydro-1H-imidazole dihydrochloride], the IC50 was 10 to 32 µM. In the case of `CC1(C)CN=C(SCC2=CSC3=NCc4ccccc4CN23)N1` [Example 8, 3-(((5,5-dimethyl-4,5-dihydro-1H-imidazol-2-yl)thio)methyl)-5,10-dihydrobenzo[e]thiazolo[3,2-a][1,3]diazepine dihydrochloride], the IC50 is reported as ≤ 10 µM. `Fc1cc(Cl)cc2c1N=C1SC=C(CSC3=NCc4ccccc4N3)N1C2` [Example 86, 7-chloro-3-(((1,4-dihydroquinazolin-2-yl)thio)methyl)-9-fluoro-5H-thiazolo[2,3-b]quinazoline dihydrochloride] was tested, and the IC50 was ≤ 10 µM. With `c1ccc(C2CCN(CCSC3=NCc4ccccc4N3)C2)cc1` (stereo not shown) [Example 140, 2-((2-(3-phenylpyrrolidin-1-yl)ethyl)thio)-1,4-dihydroquinazoline dihydrochloride] the IC50 was ≤ 10 µM. For `Fc1cccc2c1CN=C(SCCCCN1CCCC1)N2` [Example 149, 5-fluoro-2-((4-(pyrrolidin-1-yl)butyl)thio)-1,4-dihydroquinazoline dihydrochloride], the IC50 was ≤ 10 µM. For `C1=C(CSC2=NCCc3ccccc3N2)N2Cc3ccccc3CN=C2S1` [Example 25, 3-(((4,5-dihydro-1H-benzo[d][1,3]diazepin-2-yl)thio)methyl)-5,10-dihydrobenzo[e]thiazolo[3,2-a][1,3]diazepine dihydrochloride], the IC50 was ≤ 10 µM. In the case of `CC(C)(C)OC(=O)N1CC[C@H](SC2=NCCc3ccccc3N2)C1` [Example 198, tert-butyl (S)-3-((4,5-dihydro-1H-benzo[d][1,3]diazepin-2-yl)thio)pyrrolidine-1-carboxylate], the IC50 is reported as 10 to 32 µM. In the case of `C1=C(CSC2=N[C@@H](c3ccccc3)[C@H](c3ccccc3)N2)N2Cc3ccccc3CN=C2S1` [Example 24, 3-((((4S,5S)-4,5-diphenyl-4,5-dihydro-1H-imidazol-2-yl)thio)methyl)-5,10-dihydrobenzo[e]thiazolo[3,2-a][1,3]diazepine dihydrochloride], the IC50 is reported as ≤ 10 µM. With `CN1CCN=C1SCC1=CSC2=Nc3ccc(Cl)cc3CN12` [Example 45, 7-chloro-3-(((1-methyl-4,5-dihydro-1H-imidazol-2-yl)thio)methyl)-5H-thiazolo[2,3-b]quinazoline dihydrochloride] the IC50 was ≤ 10 µM. In the case of `c1ccc(N2CCC(SC3=NCc4ccccc4CN3)C2)cc1` (stereo not shown) [Example 106, 3-((1-phenylpyrrolidin-3-yl)thio)-2,5-dihydro-1H-benzo[e][1,3]diazepine hydrochloride], the IC50 is reported as 10 to 32 µM. `C1=C(CSC2=NCc3ccccc3N2)N2CC(CCc3ccccc3)N=C2S1` (stereo not shown) [Example 126, 3-(((1,4-dihydroquinazolin-2-yl)thio)methyl)-6-phenethyl-5,6-dihydroimidazo[2,1-b]thiazole dihydrochloride] was tested, and the IC50 was ≤ 10 µM. With `C1=C(CSC2=NCc3ccccc3N2)N2C[C@H](Cc3c[nH]c4ccccc34)N=C2S1` [Example 109, (S)-6-((1H-indol-3-yl)methyl)-3-(((1,4-dihydroquinazolin-2-yl)thio)methyl)-5,6-dihydroimidazo[2,1-b]thiazole dihydrochloride] the IC50 was ≤ 10 µM. In the case of `c1ccc2c(c1)CN=C(SCCN1CCCCC1)N2` [Example 91, 2-((2-(piperidin-1-yl)ethyl)thio)-1,4-dihydroquinazoline dihydrochloride], the IC50 is reported as ≤ 10 µM. With `c1ccc(CC2CN=C(SCCCCN3CCCC3)N2)cc1` (stereo not shown) [Example 181, 5-benzyl-2-((4-(pyrrolidin-1-yl)butyl)thio)-4,5-dihydro-1H-imidazole dihydrochloride] the IC50 was > 32 µM. For `CCCCN1CCN=C1SCC1=CSC2=NCc3ccccc3CN12` [Example 37, 3-(((1-butyl-4,5-dihydro-1H-imidazol-2-yl)thio)methyl)-5,10-dihydrobenzo[e]thiazolo[3,2-a][1,3]diazepine dihydrochloride], the IC50 was ≤ 10 µM. For `CC(CSC1=NCc2ccccc2N1)N1CCCC1` (stereo not shown) [Example 129, 2-((2-(pyrrolidin-1-yl)propyl)thio)-1,4-dihydroquinazoline dihydrochloride], the IC50 was ≤ 10 µM. With `Clc1ccc2c(c1)N=C1SC=C(CSC3=NCc4ccccc4N3)N1C2` [Example 42, 8-chloro-3-(((1,4-dihydroquinazolin-2-yl)thio)methyl)-5H-thiazolo[2,3-b]quinazoline dihydrochloride] the IC50 was ≤ 10 µM. `Brc1ccc2c(c1)N=C1SC=C(CSC3=NCc4ccccc4N3)N1C2` [Example 70, 8-bromo-3-(((1,4-dihydroquinazolin-2-yl)thio)methyl)-5H-thiazolo[2,3-b]quinazoline dihydrochloride] was tested, and the IC50 was ≤ 10 µM. With `CC(C)N1CCN=C1SCC1=CSC2=Nc3ccc(Cl)cc3CN12` [Example 48, 7-chloro-3-(((1-isopropyl-4,5-dihydro-1H-imidazol-2-yl)thio)methyl)-5H-thiazolo[2,3-b]quinazoline dihydrochloride] the IC50 was ≤ 10 µM. `c1ccc2c(c1)CCN=C(SCCN1CCCc3ccccc31)N2` [Example 191, 2-((2-(3,4-dihydroquinolin-1(2H)-yl)ethyl)thio)-4,5-dihydro-1H-benzo[d][1,3]diazepine hydrochloride] showed an IC50 of 10 to 32 µM.

Same assay, conditions: PBMCs from 2 healthy donors, R848 5 μg/mL, IFN in supernatant by twINNE luciferase reporter; IT1t value is mean of at least 7 independent sets; read-out: IC50 of anti-inflammatory activity (IFN production by activated PBMCs)
`CC1(C)CN2C(CSC(=NC3CCCCC3)NC3CCCCC3)=CSC2=N1` [IT1t, reference compound] was tested, and the IC50 was 32 µM.
